Results from the supplement of paper PMC10307832.

Legend:
Test in all cases: relative viability (nuclei count vs DMSO), 5 days (fraction); higher = more cells survive
A549 = tested on: A549
In short: (§1)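 Relative viability divides the nuclei count in treated wells by that in vehicle wells. Lung cancer cell lines were seeded in 1536-well plates, dosed by pin tool the next day, and fixed and stained after 5 days in one step with final 0.05% Triton X-100, 1% formaldehyde and 1 ug/ml Hoechst. Dosing was a single drug or a fixed anchor-drug dose plus five library-drug doses (not always all listed) in √10 steps, and values are medians of duplicate plates imaged at 4×.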

COR-L 105 = tested on: COR-L 105
In short: as §1

LCLC-103H = tested on: LCLC-103H
In short: as §1

LK-2 = tested on: LK-2
In short: as §1

NCI-H1355 = tested on: NCI-H1355
In short: as §1

NCI-H1623 = tested on: NCI-H1623
In short: as §1

NCI-H520 = tested on: NCI-H520
In short: as §1

NCI-H522 = tested on: NCI-H522
In short: as §1

Calu-6 = tested on: Calu-6
In short: as §1

EBC-1 = tested on: EBC-1
In short: as §1

IA-LM = tested on: IA-LM
In short: as §1

NCI-H1299 = tested on: NCI-H1299
In short: as §1

NCI-H1703 = tested on: NCI-H1703
In short: as §1

In the case of CCN(CC)CCCCNc1ncc2cc(-c3cc(OC)cc(OC)c3)c(NC(=O)NC(C)(C)C)nc2n1 + N=C(N)NC(=N)NCCc1ccccc1 [Phenformin] (partner 250 µM), the relative viability (A549; first compound 0.01 µM) was 0.198, the relative viability (A549; first compound 0.03162 µM) was 0.19 and the relative viability (A549; first compound 0.1 µM) was 1.04. The relative viability (A549; first compound 0.3162 µM) was 0.247, the relative viability (A549; first compound 1 µM) was 0.12 and the relative viability (COR-L 105; first compound 0.01 µM) was 0.476. It also gave a relative viability (COR-L 105; first compound 0.03162 µM) of 0.521, a relative viability (COR-L 105; first compound 0.1 µM) of 0.47 and a relative viability (COR-L 105; first compound 0.3162 µM) of 0.615. It also gave a relative viability (COR-L 105; first compound 1 µM) of 0.421, a relative viability (LCLC-103H; first compound 0.01 µM) of 0.34 and a relative viability (LCLC-103H; first compound 0.03162 µM) of 0.335. For the same compound, the relative viability (LCLC-103H; first compound 0.1 µM) was 0.37, the relative viability (LCLC-103H; first compound 0.3162 µM) was 0.357 and the relative viability (LCLC-103H; first compound 1 µM) was 0.293. For the same compound, the relative viability (LK-2; first compound 0.01 µM) was 0.638, the relative viability (LK-2; first compound 0.03162 µM) was 0.289 and the relative viability (LK-2; first compound 0.1 µM) was 0.239. For the same compound, the relative viability (LK-2; first compound 0.3162 µM) was 0.304, the relative viability (LK-2; first compound 1 µM) was 0.223 and the relative viability (NCI-H1355; first compound 0.01 µM) was 0.446. The relative viability (NCI-H1355; first compound 0.03162 µM) was 0.443, the relative viability (NCI-H1355; first compound 0.1 µM) was 0.468 and the relative viability (NCI-H1355; first compound 0.3162 µM) was 0.501. The relative viability (NCI-H1355; first compound 1 µM) was 0.413, the relative viability (NCI-H1623; first compound 0.01 µM) was 0.602 and the relative viability (NCI-H1623; first compound 0.03162 µM) was 0.49. The relative viability (NCI-H1623; first compound 0.1 µM) was 0.626, the relative viability (NCI-H1623; first compound 0.3162 µM) was 0.608 and the relative viability (NCI-H1623; first compound 1 µM) was 0.577. It also gave a relative viability (NCI-H520; first compound 0.01 µM) of 0.453, a relative viability (NCI-H520; first compound 0.03162 µM) of 0.519 and a relative viability (NCI-H520; first compound 0.1 µM) of 0.623. It also gave a relative viability (NCI-H520; first compound 0.3162 µM) of 0.335, a relative viability (NCI-H520; first compound 1 µM) of 0.191 and a relative viability (NCI-H522; first compound 0.01 µM) of 0.726. The relative viability (NCI-H522; first compound 0.03162 µM) was 0.768, the relative viability (NCI-H522; first compound 0.1 µM) was 0.582 and the relative viability (NCI-H522; first compound 0.3162 µM) was 0.688. For the same compound, the relative viability (NCI-H522; first compound 1 µM) was 0.633.

With O=c1cc(N2CCOCC2)oc2c(-c3cccc4c3sc3ccccc34)cccc12 + COc1cc2c(Oc3ccc(NC(=O)C4(C(=O)Nc5ccc(F)cc5)CC4)cc3F)ccnc2cc1OCCCN1CCOCC1 [Foretinib] (partner 0.25 µM) the relative viability (A549; first compound 0.01 µM) was 0.936, the relative viability (A549; first compound 0.03162 µM) was 1 and the relative viability (A549; first compound 0.1 µM) was 0.99. It also gave a relative viability (A549; first compound 0.3162 µM) of 0.912, a relative viability (A549; first compound 1 µM) of 0.994 and a relative viability (COR-L 105; first compound 0.01 µM) of 0.986. For the same compound, the relative viability (COR-L 105; first compound 0.03162 µM) was 1.1, the relative viability (COR-L 105; first compound 0.1 µM) was 0.681 and the relative viability (COR-L 105; first compound 0.3162 µM) was 1.04. It also gave a relative viability (COR-L 105; first compound 1 µM) of 1.21, a relative viability (Calu-6; first compound 0.01 µM) of 0.932 and a relative viability (Calu-6; first compound 0.03162 µM) of 0.895. For the same compound, the relative viability (Calu-6; first compound 0.1 µM) was 0.891, the relative viability (Calu-6; first compound 0.3162 µM) was 0.888 and the relative viability (Calu-6; first compound 1 µM) was 0.839. It also gave a relative viability (EBC-1; first compound 0.01 µM) of 0.0963, a relative viability (EBC-1; first compound 0.03162 µM) of 0.0939 and a relative viability (EBC-1; first compound 0.1 µM) of 0.0965. The relative viability (EBC-1; first compound 0.3162 µM) was 0.128, the relative viability (EBC-1; first compound 1 µM) was 0.102 and the relative viability (IA-LM; first compound 0.01 µM) was 1.1. It also gave a relative viability (IA-LM; first compound 0.03162 µM) of 1.11, a relative viability (IA-LM; first compound 0.1 µM) of 1.23 and a relative viability (IA-LM; first compound 0.3162 µM) of 1.06. For the same compound, the relative viability (IA-LM; first compound 1 µM) was 1.25, the relative viability (LCLC-103H; first compound 0.01 µM) was 0.685 and the relative viability (LCLC-103H; first compound 0.03162 µM) was 0.786. For the same compound, the relative viability (LCLC-103H; first compound 0.1 µM) was 0.806, the relative viability (LCLC-103H; first compound 0.3162 µM) was 0.824 and the relative viability (LCLC-103H; first compound 1 µM) was 0.746. It also gave a relative viability (LK-2; first compound 0.01 µM) of 1.17, a relative viability (LK-2; first compound 0.03162 µM) of 1.16 and a relative viability (LK-2; first compound 0.1 µM) of 1.53. It also gave a relative viability (LK-2; first compound 0.3162 µM) of 0.958, a relative viability (LK-2; first compound 1 µM) of 0.951 and a relative viability (NCI-H1299; first compound 0.01 µM) of 1.04. The relative viability (NCI-H1299; first compound 0.03162 µM) was 1.11, the relative viability (NCI-H1299; first compound 0.1 µM) was 1.08 and the relative viability (NCI-H1299; first compound 0.3162 µM) was 1.13. For the same compound, the relative viability (NCI-H1299; first compound 1 µM) was 1.04, the relative viability (NCI-H1355; first compound 0.01 µM) was 0.962 and the relative viability (NCI-H1355; first compound 0.03162 µM) was 1.01. For the same compound, the relative viability (NCI-H1355; first compound 0.1 µM) was 0.952, the relative viability (NCI-H1355; first compound 0.3162 µM) was 0.986 and the relative viability (NCI-H1355; first compound 1 µM) was 0.917. It also gave a relative viability (NCI-H1623; first compound 0.01 µM) of 0.84, a relative viability (NCI-H1623; first compound 0.03162 µM) of 0.9 and a relative viability (NCI-H1623; first compound 0.1 µM) of 0.559. For the same compound, the relative viability (NCI-H1623; first compound 0.3162 µM) was 0.849, the relative viability (NCI-H1623; first compound 1 µM) was 0.862 and the relative viability (NCI-H1703; first compound 0.01 µM) was 0.333. It also gave a relative viability (NCI-H1703; first compound 0.03162 µM) of 0.314, a relative viability (NCI-H1703; first compound 0.1 µM) of 0.352 and a relative viability (NCI-H1703; first compound 0.3162 µM) of 0.371. For the same compound, the relative viability (NCI-H1703; first compound 1 µM) was 0.296, the relative viability (NCI-H520; first compound 0.01 µM) was 0.896 and the relative viability (NCI-H520; first compound 0.03162 µM) was 0.86. The relative viability (NCI-H520; first compound 0.1 µM) was 0.725, the relative viability (NCI-H520; first compound 0.3162 µM) was 0.774 and the relative viability (NCI-H520; first compound 1 µM) was 0.734.
